Laboratory results as given in US5948814A, “Genistein for the treatment of cystic fibrosis” (priority 1998, dated 1999).
Read-outs that look alike come from different tables or passages of the source.

How the values were obtained:
ΔF508-CFTR = ΔF508-CFTR (Homo sapiens, UniProt P13569, DEL508-508); assay: Forskolin-dependent I- efflux, NIH/3T3-ΔF508 cells
Method: FIG. 1 is a graph representing the dose-responses relationship for forskolin-dependent I^- efflux. Peak rates of I^- efflux in the presence (closed symbols) or absence (open symbols) of 50 μM genistein were obtained with NIH/3T3-cystic fibrosis transmembrane conductance regulator (NIH/3T3-CFTR) (circles) and NTH/3T3-Δphenylalanine 508 (ΔF508) cells (triangles). NIH/3T3-CFTR cells are cultured at 37° C. NIH/3T3-Δ508 cells are cultured at 27° C. for 3 days prior to assay. Data are mean values±SE (n>5). Lines were fit by nonlinear least squares.
FIG. 2 is a bar graph showing the effects of stimulation of ΔF508-CFTR by forskolin and genistein. Peak rates of I^- efflux were measured with NIH/3T3-ΔF508cells that were cultured at 37° C. (open bars) or at 27° C. for 3 days prior to assay (filled bars). I^- efflux was assayed without added agonist as a control and with 1 μM forskolin (fsk), 50 μM genistein (gen), or 1 μM forskolin plus 50 μM genistein (fsk+gen). Error bars are SE for n>7.
Cell culture: NIH/3T3-CFTR, NIH/3T3-ΔF508, and NIH/3T3 mock cells (generous gifts from Dr. Richard Mulligan of Children's Hospital and Medical Center, Harvard Medical School) were grown as described [Bradbury et al., 1992] at 37° C. and 5% CO2 in Dulbecco's modified Eagle's medium-H21 supplemented with 10% new-born calf serum, 4 mM glutamine, 25 mM glucose, 100 μg/ml penicillin, 100 μg/ml streptomycin, and 50 μg/ml gentamicin. Cells were maintained in T75 flasks, passaged at 90-95% confluency, and split one to four. For measurements of I^- efflux and in vivo phosphorylation, cells were seeded onto 35-mm dishes at […]. For patch-clamp experiments, cells were grown on coverglass chips in 35-mm culture dishes. Media were replaced 24 hours after plating and thereafter every 48 hours. In all cases, media were changed on the day before I^- efflux studies, NIH/3T3-ΔF508 cells were transferred to 27° C. three days before use, and 1 day prior to study, media were supplemented with 5 mM butyrate. For patch-clamp studies, where a constant level of functional ΔF508-CFTR was not essential, NIH/3T3-ΔF508 cells were cultured at 27° C. for 2-6 days before use. Calu-3 cells were grown and maintained as described by Hunter [1995].
I^- efflux: I^- efflux was measured as described previously [Reenstra et al., 1996]. Briefly, cells were incubated for 30 minutes with 37° C. I^- efflux buffer [(in mM) 141 NaCl, 4 KCl, 1 KH2 PO4, 0.9 MgCl2, 1.7 CaCl2. 10 N-2hydroxyethylpiperazine-N'-2-ethanesulfonic acid (HEPES), 25 glucose pH 7.4] containing 5 μCi/ml carrier-free ^125 I^- (sodium salt). Extracellular ^125 I^- was removed by washing four times with efflux buffer, and the rate of loss of intracellular ^125 I^- was determined by replacing the bathing solution with 37° C. efflux buffer every 60 seconds for 12 minutes. Time-dependent rates of ^125 I^- efflux are calculated from R=ln(^125 I^-t1 /^125 I^-t2)/(t1-t2), where ^125 I^-t is the intracellular ^125 I^- at time t and t1 and t2 are successive time points. Dose-response curves were obtained from peak rates of 125I^- efflux by nonlinear least squares fitting to R=[Ro +Rmx ·([fsk]/K1/2)]/[1+([fsk]/K1/2)], where Ro and Rmx are the rates of ^125 I efflux at zero and infinite concentration of forskolin (fsk), and K1/2 is the concentration of agonist that gives a half-maximal change.
To investigate effects of genistein on CFTR activity, the rates of I^- efflux were measured from stably transfected NIH/3T3 cells expressing wt- and ΔF508-CFTR (NIH/33-CFTR and NIH/3T3-ΔF508 cells, respectively). […] To increase ΔF508-CFTR channel activity, NIH/3T3-ΔF508 cells were cultured at 27° C. for 3 days [Denning et al., 1992].

wt-CFTR = wt-CFTR (Homo sapiens, UniProt P13569); assay type: cell-based; parameters: expressed in transfected cells
Method: FIGS. 4A and B are graphs showing the variance analysis of macroscopic currents for wt- and ΔF508-CFTR wherein (A) is a plot of variance as a function of mean-current amplitude for NIH/3T3-CFTR(.circle-solid.) and NIH/3T3-ΔF508 (.smallcircle.) cells stimulated with 10 μM forskolin plus 50 μM genistein. (B) is a plot of variance as a function of mean-current amplitude for NIH/3T3-CFTR (.circle-solid.) and NIH/3T3-ΔF508 (.smallcircle.) cells stimulated with 10 μM forskolin. Lines are least square regressions.
Electrophysiology: CFTR channel currents were recorded at room temperature (~22° C.) with a patch-clamp amplifier (EPC-9, Heka Electronic), filtered at 100 Hz with a built-in three-pole Bessel filter, and stored on videotapes. Data were subsequently refiltered at 25 Hz with an eight-pole Bessel filter (Frequency Device, Havervill, Mass.) and captured onto a hard disk at a sampling rate of 50 Hz. […] Patch-clamp electrodes were made from Corning 7052 glass capillaries (Warner Instrument, Hammed, Conn.). The pipette resistance was usually 3-5 M.OMEGA., and the seal resistance was >20 G.OMEGA.. […]
Statistics: Mean currents and variance were estimated with Igor (Wavemetrics, Lake Oswego, Oreg.). […] Po was calculated from patches containing a single channel by dividing the open channel current amplitude with the mean-current amplitude. […] Calculated values are presented as means±SE. […]

Chain of ΔF508-CFTR (P13569 with tags, fused parts or gaps DEL508-508): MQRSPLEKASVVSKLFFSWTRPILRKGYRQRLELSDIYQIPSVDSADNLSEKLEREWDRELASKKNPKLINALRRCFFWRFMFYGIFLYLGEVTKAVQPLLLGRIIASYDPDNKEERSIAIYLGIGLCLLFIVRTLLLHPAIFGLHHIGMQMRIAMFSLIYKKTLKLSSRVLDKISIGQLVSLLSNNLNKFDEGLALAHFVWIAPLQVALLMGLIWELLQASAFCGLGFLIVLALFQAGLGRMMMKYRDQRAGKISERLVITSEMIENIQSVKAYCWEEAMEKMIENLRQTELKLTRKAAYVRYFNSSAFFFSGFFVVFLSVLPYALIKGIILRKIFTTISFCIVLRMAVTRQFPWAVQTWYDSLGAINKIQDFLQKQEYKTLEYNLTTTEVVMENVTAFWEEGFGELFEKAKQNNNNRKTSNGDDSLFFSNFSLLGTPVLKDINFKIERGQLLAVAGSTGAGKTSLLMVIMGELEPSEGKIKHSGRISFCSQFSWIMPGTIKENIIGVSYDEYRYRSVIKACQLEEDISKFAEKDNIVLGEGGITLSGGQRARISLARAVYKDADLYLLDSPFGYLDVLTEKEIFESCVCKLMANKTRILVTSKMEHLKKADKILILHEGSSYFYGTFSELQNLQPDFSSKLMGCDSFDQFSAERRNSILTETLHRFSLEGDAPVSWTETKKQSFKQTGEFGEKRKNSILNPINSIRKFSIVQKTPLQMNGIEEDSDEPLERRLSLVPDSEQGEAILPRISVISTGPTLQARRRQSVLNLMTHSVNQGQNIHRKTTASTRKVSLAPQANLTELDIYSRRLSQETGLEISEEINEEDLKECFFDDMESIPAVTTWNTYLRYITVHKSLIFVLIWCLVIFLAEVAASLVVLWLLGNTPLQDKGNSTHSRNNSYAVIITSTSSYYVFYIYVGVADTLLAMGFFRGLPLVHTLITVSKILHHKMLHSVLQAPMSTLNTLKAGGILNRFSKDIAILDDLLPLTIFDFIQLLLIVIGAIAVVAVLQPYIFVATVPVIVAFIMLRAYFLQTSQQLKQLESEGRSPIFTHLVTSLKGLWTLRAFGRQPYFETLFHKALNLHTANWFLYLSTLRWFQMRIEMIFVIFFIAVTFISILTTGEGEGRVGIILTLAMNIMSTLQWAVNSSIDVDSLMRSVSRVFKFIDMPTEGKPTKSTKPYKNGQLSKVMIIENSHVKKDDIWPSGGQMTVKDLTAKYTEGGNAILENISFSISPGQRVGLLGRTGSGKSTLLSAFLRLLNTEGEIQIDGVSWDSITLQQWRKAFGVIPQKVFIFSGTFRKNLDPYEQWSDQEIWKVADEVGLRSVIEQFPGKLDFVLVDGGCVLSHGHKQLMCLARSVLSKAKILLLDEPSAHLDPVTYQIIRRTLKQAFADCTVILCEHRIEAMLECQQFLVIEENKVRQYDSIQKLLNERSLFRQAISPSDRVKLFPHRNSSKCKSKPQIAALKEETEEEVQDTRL
Chain of wt-CFTR (P13569 whole entry): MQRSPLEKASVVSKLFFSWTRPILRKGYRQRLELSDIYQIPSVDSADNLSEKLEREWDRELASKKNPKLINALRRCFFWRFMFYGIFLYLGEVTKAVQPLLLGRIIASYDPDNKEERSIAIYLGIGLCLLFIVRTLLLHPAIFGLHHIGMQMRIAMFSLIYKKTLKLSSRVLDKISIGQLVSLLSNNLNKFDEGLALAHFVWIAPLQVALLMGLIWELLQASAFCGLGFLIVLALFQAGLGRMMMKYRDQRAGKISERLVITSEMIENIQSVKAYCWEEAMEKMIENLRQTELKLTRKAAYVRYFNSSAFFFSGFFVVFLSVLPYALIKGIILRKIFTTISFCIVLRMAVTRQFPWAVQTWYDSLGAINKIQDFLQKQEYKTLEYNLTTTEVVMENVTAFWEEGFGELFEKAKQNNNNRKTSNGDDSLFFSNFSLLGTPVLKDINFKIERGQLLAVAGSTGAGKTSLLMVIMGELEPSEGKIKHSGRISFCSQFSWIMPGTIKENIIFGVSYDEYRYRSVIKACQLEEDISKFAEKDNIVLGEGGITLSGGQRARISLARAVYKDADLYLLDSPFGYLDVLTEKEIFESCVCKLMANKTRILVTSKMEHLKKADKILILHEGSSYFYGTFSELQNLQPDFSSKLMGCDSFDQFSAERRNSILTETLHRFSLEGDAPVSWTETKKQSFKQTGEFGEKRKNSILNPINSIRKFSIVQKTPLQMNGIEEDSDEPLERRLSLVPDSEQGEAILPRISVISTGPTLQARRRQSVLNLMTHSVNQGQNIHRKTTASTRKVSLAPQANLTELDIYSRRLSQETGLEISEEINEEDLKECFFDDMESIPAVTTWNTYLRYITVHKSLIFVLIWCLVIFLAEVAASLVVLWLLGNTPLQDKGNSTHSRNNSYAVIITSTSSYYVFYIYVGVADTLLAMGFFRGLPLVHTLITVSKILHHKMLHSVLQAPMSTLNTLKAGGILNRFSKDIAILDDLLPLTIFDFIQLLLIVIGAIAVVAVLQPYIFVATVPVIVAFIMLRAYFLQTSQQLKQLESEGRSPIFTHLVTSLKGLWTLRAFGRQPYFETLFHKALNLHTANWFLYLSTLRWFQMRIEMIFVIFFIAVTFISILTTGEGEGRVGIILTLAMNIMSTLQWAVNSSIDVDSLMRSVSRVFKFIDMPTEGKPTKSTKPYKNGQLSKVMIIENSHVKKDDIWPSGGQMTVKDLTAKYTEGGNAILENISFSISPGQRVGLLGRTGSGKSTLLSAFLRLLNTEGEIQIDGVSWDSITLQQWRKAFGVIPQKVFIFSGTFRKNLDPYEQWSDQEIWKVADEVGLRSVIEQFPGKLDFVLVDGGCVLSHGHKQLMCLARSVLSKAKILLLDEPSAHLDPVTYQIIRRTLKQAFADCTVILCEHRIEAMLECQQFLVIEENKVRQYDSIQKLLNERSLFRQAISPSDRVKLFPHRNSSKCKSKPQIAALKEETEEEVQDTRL

| SMILES | increase of the maximal forskolin-dependent I- efflux response by genistein (ΔF508-CFTR; 50 μM genistein, cells cultured at 27° C. for 3 days) [fold] | slope of variance vs mean current (proportional to 1-Po) (wt-CFTR; 10 μM forskolin and 50 μM genistein) [pA] | EC50 (ΔF508-CFTR) [nM] | stimulation of mutant ΔF508-CFTR (ΔF508-CFTR) | maximal fold induction (ΔF508-CFTR; mouse, read-out: maximal forskolin-dependent increase in I- efflux) | EC50 (ΔF508-CFTR; read-out: K1/2 of forskolin for I- efflux in presence of genistein, with 50 μM genistein, cells cultured at 27° C. for 3 days) [nM] | activation at 10 µM (ΔF508-CFTR; read-out: increase of I- efflux) [%] | slope of variance vs mean current (proportional to 1-Po) (wt-CFTR; 10 μM forskolin) [pA] |
| --- | --- | --- | --- | --- | --- | --- | --- | --- |
| O=c1c(-c2ccc(O)cc2)coc2cc(O)cc(O)c12 [Genistein, 4',5,7-trihydroxyisoflavone] | 3.7±0.4 | 0.17±0.02 | – | – | – | – | – | – |
| C=C[C@@]1(C)CC(=O)[C@]2(O)[C@@]3(C)[C@@H](O)CCC(C)(C)[C@@H]3[C@H](O)[C@H](OC(C)=O)[C@@]2(C)O1 [forskolin] | – | – | 670 ± 260 | had little affect on mutant ΔF508-CFTR | 1.65 ± 0.08 | 16 ± 5 | < 15 | 0.27±0.02 |
